Test results as given in patent publication US20220330549A1, “USE OF N-BENZYLBENZAMIDE-BASED COMPOUND AS HERBICIDE” (Northwest A&F University, priority 2020, published 2022).

Legend:
Assay type in all cases: in vivo
Humulus scandens [1] = assay: Herbicidal activity test for indoor pre-emergence soil treatment; conditions: 150 g a.i./ha, visual inspection 21 days after treatment
Summary of the method: (§1)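 Pre-emergence test following NY/T 1155.3-2006: weed seeds were sown in moistened neutral sandy loam (≤2% organic matter) and covered with 0.5–2.0 cm of soil. After 24 h, the soil was sprayed with a 10% EC diluted in water at 150 g(a.i.)/ha. Damage was scored visually on a 1–9 scale at 21 days.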

Digitaria sanguinalis [2] = assay: as above; parameters: key: 1-9 levels; higher = more weed remaining vs blank control; conditions: 150 g a.i./ha, visual inspection 21 days after treatment
Summary of the method: as §1

Amaranthus retroflexus [3] = assay: as above; parameters: key: 1-9 levels; higher = more weed remaining vs blank control; conditions: 150 g a.i./ha, visual inspection 21 days after treatment
Summary of the method: as §1

Barnyard grass [4] = assay: as above; parameters: key: level 1-9; higher = more weed remaining vs blank control; conditions: 150 g a.i./ha, visual inspection 21 days after treatment
Summary of the method: as §1

green bristlegrass [5] = assay: as above; parameters: key: level 1-9; higher = more weed remaining vs blank control; conditions: 150 g a.i./ha, visual inspection 21 days after treatment
Summary of the method: as §1

Piemarker [6] = assay: as above; parameters: key: level 1-9; higher = more weed remaining vs blank control; conditions: 150 g a.i./ha, visual inspection 21 days after treatment
Summary of the method: as §1

Broadleaf weed = assay: Post-emergence herbicidal activity test in a paddy field; parameters: key: level scale; higher level = more weed left vs blank control; conditions: 150 g a.i./ha (penoxsulam control 250 g(a.i.)/h)
Summary of the method: (§2)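 Efficacy was visually estimated 15 and 30 days after spraying, grading weed coverage relative to an untreated neighbouring plot (level 2 = 0 to 2.5%, level 9 = 67.6 to 100%). Treatments were 150 g(a.i.)/ha from 10% emulsifiable concentrates applied at the 4-5 leaf rice stage, four repeats of 50 m^2 each.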

Gramineae = assay: as above; parameters: key: level scale; higher level = more weed left vs blank control; conditions: 150 g a.i./ha (penoxsulam control 250 g(a.i.)/h)
Summary of the method: as §2

Cyperaceae = assay: as above; parameters: key: level scale; higher level = more weed left vs blank control; conditions: 150 g a.i./ha (penoxsulam control 250 g(a.i.)/h)
Summary of the method: as §2

Barnyard grass [7] = assay: Herbicidal activity test for indoor post-emergence spraying on stems and leaves; parameters: key: grade level by weed remaining vs blank control, e.g. 5 = 10.1-15%; conditions: 150 g a.i./ha, visual inspection 21 days after treatment
Summary of the method: (§3)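 Greenhouse-grown weeds, post-emergence foliar spray (NY/T 1155.4-2006 method); visual scoring at 21 d post-treatment as levels vs. untreated blank control (e.g., level 5 = 10.1–15%, level 8 = 35.1–67.5% of control weed).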

Digitaria sanguinalis [8] = assay: as above; parameters: key: grade level by weed remaining vs blank control, e.g. 5 = 10.1-15%; conditions: 150 g a.i./ha, visual inspection 21 days after treatment
Summary of the method: as §3

Amaranthus retroflexus [9] = assay: as above; parameters: key: grade level by weed remaining vs blank control, e.g. 5 = 10.1-15%; conditions: 150 g a.i./ha, visual inspection 21 days after treatment
Summary of the method: as §3

Humulus scandens [10] = assay: as above; parameters: key: grade level by weed remaining vs blank control, e.g. 5 = 10.1-15%; conditions: 150 g a.i./ha, visual inspection 21 days after treatment
Summary of the method: as §3

green bristlegrass [11] = assay: as above; parameters: key: grade level by weed remaining vs blank control, e.g. 5 = 10.1-15%; conditions: 150 g a.i./ha, visual inspection 21 days after treatment
Summary of the method: as §3

Piemarker [12] = assay: as above; parameters: key: grade level by weed remaining vs blank control, e.g. 5 = 10.1-15%; conditions: 150 g a.i./ha, visual inspection 21 days after treatment
Summary of the method: as §3

Barnyard grass [13] = assay: Field test for weed control in a corn field; conditions: 150 g a.i./ha, 30 days after treatment
Summary of the method: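 Herbicidal activity against barnyard grass was assessed in corn field plots of 20 m^2, with four replicates per treatment. Compounds were applied as water-diluted 10% emulsifiable concentrates at 150 g(a.i.)/ha at the 2-5 leaf corn stage, with 25% mesotrione oil dispersion as the reference agent. Damage was scored on a 1-9 scale against untreated blank plots.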

Digitaria sanguinalis [14] = assay: Field test for weed control in a corn field; conditions: 150 g a.i./ha, after treatment
Summary of the method: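 Field trial in a corn field following GB/T 17980.42-2000. Test compounds were formulated as 10% emulsifiable concentrates, diluted in water and sprayed post-emergence at 150 g(a.i.)/ha when corn had 2 to 5 leaves, with 4 replicates on 20 m^2 plots. Control of Digitaria sanguinalis was scored on a 1-9 scale based on weed damage relative to the untreated blank area.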

Solanum nigrum = assay: Field test for weed control in a corn field; conditions: 150 g a.i./ha, 30 days after treatment
Summary of the method: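 In a corn field trial based on GB/T 17980.42-2000, 10% emulsifiable concentrates diluted in water were sprayed at 150 g(a.i.)/ha at the 2 to 5 leaf stage of corn. Each treatment used 20 m^2 plots and was repeated 4 times, with 25% mesotrione oil dispersion as the reference agent. Solanum nigrum damage was scored on a 1-9 scale against blank control plots.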

Acalypha australis = assay: Field test for weed control in a corn field; conditions: 150 g a.i./ha, after treatment
Summary of the method: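 Herbicidal activity against weeds was assessed in corn plots by the GB/T 17980.42-2000 method. Corn at the 2–5 leaf stage received water sprays of 10% emulsifiable concentrates at 150 g(a.i.)/ha, four repeats per treatment over 20 m^2. A 25% mesotrione oil dispersion was the reference. Damage symptoms and severity were rated on levels 1-9 relative to weeds in the blank control area.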

Amaranthus retroflexus [15] = assay: Field test for weed control in a corn field; conditions: 150 g a.i./ha, 30 days after treatment
Summary of the method: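 Post-emergence control of Amaranthus retroflexus was assessed in corn plots using the GB/T 17980.42-2000 method. Emulsifiable concentrates (10%) in water were applied by spraying at the 2- to 5-leaf crop stage on 20 m^2 plots, four replicates each, alongside a mesotrione 25% oil dispersion reference. Herbicidal activity was scored on 1-9 levels by weed amount relative to blank control areas.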

Chenopodium album = assay: Field test for weed control in a corn field; conditions: 150 g a.i./ha, after treatment
Summary of the method: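 Field weed-control testing in corn, run per GB/T 17980.42-2000, scored Chenopodium album on a 1-9 level scale, where each level matches a percentage range of weed remaining relative to the blank control area. Sprays of 10% emulsifiable concentrates in water delivered 150 g(a.i.)/ha at the corn 2-leaf to 5-leaf stage on 20 m^2 plots, four replicates each. Mesotrione 25% oil dispersion served as reference.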

Portulaca oleracea = assay: Field test for weed control in a corn field; conditions: 150 g a.i./ha, after treatment
Summary of the method: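 Post-emergence weed control was evaluated in a corn field by the GB/T 17980.42-2000 method. Emulsifiable concentrates (10%) in water were applied as sprays at 150 g(a.i.)/ha at the 2-5 leaf corn stage, in four replicate 20 m^2 plots. A 25% mesotrione oil dispersion served as control agent. Effects were graded 1-9 relative to weed remaining in blank control areas.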

Convolvulus arvensis = assay: Field test for weed control in a corn field; conditions: 150 g a.i./ha, after treatment
Summary of the method: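 Post-emergence herbicidal activity on Convolvulus arvensis was scored in a corn field on a 1-9 scale, based on symptoms and damage severity. Each level corresponds to the weed remaining as a percentage of the blank control area. Sprays of 10% emulsifiable concentrate at 150 g(a.i.)/ha went on at the corn 2–5 leaf stage, with four replicates of 20 m^2 per treatment.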

green bristlegrass [16] = assay: Field test for weed control in a corn field; conditions: 150 g a.i./ha, after treatment
Summary of the method: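 Herbicidal activity against green bristlegrass was assessed in corn field plots of 20 m^2 per GB/T 17980.42-2000. Test agents, formulated as 10% emulsifiable concentrates, were applied in water at 150 g(a.i.)/ha at the corn 2 leaves to 5 leaves stage, repeated 4 times. A 25% mesotrione oil dispersion served as the control agent, and weed damage was rated on levels 1-9.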

goosegrass = assay: Field test for weed control in a corn field; conditions: 150 g a.i./ha, after treatment
Summary of the method: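 In this field trial in corn, run per GB/T 17980.42-2000, test agents prepared as 10% emulsifiable concentrates were applied in water as sprays at 150 g(a.i.)/ha at the 2- to 5-leaf corn stage. Each treatment covered 20 m^2 and was repeated 4 times. Goosegrass control was scored 1-9 relative to weed remaining in blank control areas.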

nutgrass flatsedge = assay: Field test for weed control in a corn field; conditions: 150 g a.i./ha, after treatment
Summary of the method: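 Herbicidal effect on nutgrass flatsedge was measured in a field planted with corn, using the GB/T 17980.42-2000 method. Emulsifiable concentrates (10%) in water were sprayed at 150 g(a.i.)/ha during the 2-leaf to 5-leaf corn stage, on 20 m^2 plots repeated 4 times. 25% mesotrione oil dispersion was the control agent. Activity was scored from 1 to 9 by weed remaining relative to blank control plots.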

| SMILES | Herbicidal Activity Humulus scandens (Humulus scandens [1]) | Herbicidal Activity Digitaria sanguinalis (Digitaria sanguinalis [2]) | Herbicidal Activity Amaranthus retroflexus (Amaranthus retroflexus [3]) | Herbicidal Activity Barnyard grass (Barnyard grass [4]) | Herbicidal Activity Green bristlegrass (green bristlegrass [5]) | Herbicidal Activity Piemarker (Piemarker [6]) | Herbicidal activity 15 days after treatment Broadleaf weed (Broadleaf weed) | Herbicidal activity 30 days after treatment Broadleaf weed (Broadleaf weed) | Herbicidal activity 15 days after treatment Gramineae (Gramineae) | Herbicidal activity 30 days after treatment Gramineae (Gramineae) | Herbicidal activity 15 days after treatment Cyperaceae (Cyperaceae) | Herbicidal activity 30 days after treatment Cyperaceae (Cyperaceae) | Herbicidal Activity Barnyard grass (Barnyard grass [7]) | Herbicidal Activity Digitaria sanguinalis (Digitaria sanguinalis [8]) | Herbicidal Activity Amaranthus retroflexus (Amaranthus retroflexus [9]) | Herbicidal Activity Humulus scandens (Humulus scandens [10]) | Herbicidal Activity Green bristlegrass (green bristlegrass [11]) | Herbicidal Activity Piemarker (Piemarker [12]) | Post-emergence weed control effect, Barnyard grass (Barnyard grass [13]) | Post-emergence weed control effect, Digitaria sanguinalis (Digitaria sanguinalis [14]) | other results |
| --- | --- | --- | --- | --- | --- | --- | --- | --- | --- | --- | --- | --- | --- | --- | --- | --- | --- | --- | --- | --- | --- |
| COc1ccc(OC)c(C(=O)NCc2ccc(F)cc2)c1 [Compound A23] | 4 (equivalent to 5.1 to 10% of the weed in the blank control area) | 1 | 2 (equivalent to 0 to 2.5% of the weed in the blank control area) | 1 | 1 | 2 (equivalent to 0 to 2.5% of the weed in the blank control area) | 1 | 1 | 1 | 1 | 1 | 1 | 1 | 1 | 1 | 1 | 1 | 1 | 2 (equivalent to 0 to 2.5% of the weed in the blank control area) | 2 (equivalent to 0 to 2.5% of the weed in the blank control area) | Post-emergence weed control effect, Solanum nigrum (Solanum nigrum): 2 (equivalent to 0 to 2.5% of the weed in the blank control area); Post-emergence weed control effect, Acalypha australis (Acalypha australis): 2 (equivalent to 0 to 2.5% of the weed in the blank control area); Post-emergence weed control effect, Amaranthus retroflexus (Amaranthus retroflexus [15]): 1; Post-emergence weed control effect, Chenopodium album (Chenopodium album): 1; Post-emergence weed control effect, Portulaca oleracea (Portulaca oleracea): 1; Post-emergence weed control effect, Convolvulus arvensis (Convolvulus arvensis): 1; Post-emergence weed control effect, Green bristlegrass (green bristlegrass [16]): 1; Post-emergence weed control effect, Goose grass (goosegrass): 2 (equivalent to 0 to 2.5% of the weed in the blank control area); Post-emergence weed control effect, Nutgrass flatsedge (nutgrass flatsedge): 3 (equivalent to 2.6 to 5% of the weed in the blank control area) |
| COc1ncccc1C(=O)NCc1ccc(F)cc1 [Compound A94] | 2 (equivalent to 0 to 2.5% of the weed in the blank control area) | 1 | 1 | 1 | 1 | 1 | 1 | 1 | 2 (equivalent to 0 to 2.5% of the weed in the blank control area) | 2 (equivalent to 0 to 2.5% of the weed in the blank control area) | 1 | 2 (equivalent to 0 to 2.5% of the weed in the blank control area) | 1 | 1 | 1 | 1 | 1 | 1 | 1 | 2 (equivalent to 0 to 2.5% of the weed in the blank control area) | Post-emergence weed control effect, Solanum nigrum (Solanum nigrum): 2 (equivalent to 0 to 2.5% of the weed in the blank control area); Post-emergence weed control effect, Acalypha australis (Acalypha australis): 2 (equivalent to 0 to 2.5% of the weed in the blank control area); Post-emergence weed control effect, Amaranthus retroflexus (Amaranthus retroflexus [15]): 1; Post-emergence weed control effect, Chenopodium album (Chenopodium album): 1; Post-emergence weed control effect, Portulaca oleracea (Portulaca oleracea): 1; Post-emergence weed control effect, Convolvulus arvensis (Convolvulus arvensis): 2 (equivalent to 0 to 2.5% of the weed in the blank control area); Post-emergence weed control effect, Green bristlegrass (green bristlegrass [16]): 2 (equivalent to 0 to 2.5% of the weed in the blank control area); Post-emergence weed control effect, Goose grass (goosegrass): 1; Post-emergence weed control effect, Nutgrass flatsedge (nutgrass flatsedge): 3 (equivalent to 2.6 to 5% of the weed in the blank control area) |
